Experimental data published in the CheMixHub drug solubility set.

Experiment: xn = mol fraction of the nth substance listed, in the solute-free solvent

O=c1cc(CBr)c2ccccc2[nH]1 + CC(C)O + O
solubility (g/100 g solution)
Details	278.15 K	283.15 K	288.15 K	293.15 K	298.15 K	303.15 K	308.15 K	313.15 K	318.15 K
x2 = 0.03225	0.0121	0.0159	0.0207	0.0271	0.0355	0.0446	0.057	0.0718	0.0897
x2 = 0.06974	0.0203	0.0259	0.0329	0.0413	0.0516	0.0641	0.079	0.0958	0.119
x2 = 0.1139	0.03	0.0369	0.0456	0.0556	0.0685	0.0827	0.099	0.118	0.14
x2 = 0.1666	0.0397	0.0483	0.0576	0.0694	0.082	0.0986	0.115	0.136	0.158
x2 = 0.2307	0.0498	0.0596	0.0697	0.0834	0.0971	0.113	0.131	0.151	0.173
x2 = 0.3103	0.0585	0.0689	0.0799	0.0928	0.106	0.123	0.141	0.161	0.18
x2 = 0.4117	0.0623	0.0721	0.0833	0.0972	0.112	0.127	0.144	0.163	0.184
x2 = 0.5454	0.065	0.0751	0.0871	0.1	0.114	0.13	0.147	0.164	0.185
x2 = 0.7297	0.0639	0.0739	0.0847	0.0962	0.11	0.124	0.14	0.158	0.176

c1ccc2c(c1)CCc1ccccc1N2 + CC(C)O + O
solubility (g/100 g solution)
Details	283.15 K	288.15 K	293.15 K	298.15 K	303.15 K	308.15 K	313.15 K	318.15 K	323.15 K	328.15 K
x2 = 0.03176	0.0176	0.0251	0.0346	0.0488	0.0604	0.0841	0.111	0.148	0.194	0.252
x2 = 0.0697	0.0729	0.101	0.136	0.186	0.24	0.32	0.411	0.527	0.674	0.851
x2 = 0.1134	0.12	0.164	0.22	0.296	0.38	0.499	0.636	0.808	1.02	1.28
x2 = 0.1667	0.119	0.156	0.212	0.286	0.384	0.504	0.625	0.779	0.979	1.22
x2 = 0.2299	0.126	0.162	0.214	0.281	0.369	0.484	0.601	0.762	0.947	1.18
x2 = 0.3101	0.114	0.153	0.205	0.27	0.348	0.452	0.575	0.726	0.915	1.14
x2 = 0.4103	0.132	0.176	0.237	0.308	0.396	0.511	0.648	0.814	1.02	1.27
x2 = 0.5463	0.168	0.221	0.295	0.38	0.487	0.622	0.771	0.958	1.18	1.47
x2 = 0.7321	0.172	0.219	0.296	0.374	0.48	0.613	0.778	0.975	1.22	1.51

Nc1ncc(Br)nc1Br + CC(O)CO + O
solubility (g/100 g solution)
Details	278.15 K	283.15 K	288.15 K	293.15 K	298.15 K	303.15 K	308.15 K	313.15 K	318.15 K	323.15 K
x2 = 0.02564	0.0095	0.0115	0.0136	0.016	0.0185	0.0208	0.0236	0.0266	0.0296	0.0328
x2 = 0.0559	0.0197	0.0236	0.0277	0.0324	0.0372	0.0418	0.0471	0.0527	0.0583	0.0644
x2 = 0.09214	0.0333	0.0398	0.0466	0.0542	0.0622	0.0696	0.0781	0.0872	0.0963	0.106
x2 = 0.1364	0.0486	0.0576	0.0678	0.0785	0.0902	0.101	0.113	0.126	0.139	0.154
x2 = 0.1915	0.0614	0.0724	0.0858	0.0998	0.115	0.13	0.147	0.163	0.18	0.2
x2 = 0.2621	0.0735	0.0873	0.103	0.12	0.138	0.158	0.176	0.197	0.218	0.244
x2 = 0.3559	0.0818	0.0972	0.116	0.134	0.156	0.178	0.201	0.225	0.251	0.281
x2 = 0.4865	0.0875	0.105	0.125	0.146	0.17	0.196	0.219	0.246	0.276	0.307
x2 = 0.6806	0.0874	0.104	0.124	0.147	0.171	0.196	0.224	0.252	0.281	0.316

O=c1cc(CBr)c2ccccc2[nH]1 + CCCO + O
solubility (g/100 g solution)
Details	278.15 K	283.15 K	288.15 K	293.15 K	298.15 K	303.15 K	308.15 K	313.15 K	318.15 K
x2 = 0.03225	0.0181	0.0232	0.0292	0.0365	0.0451	0.0563	0.0686	0.0826	0.0993
x2 = 0.06974	0.0316	0.038	0.0464	0.0561	0.0674	0.0807	0.0957	0.112	0.131
x2 = 0.1139	0.0465	0.0552	0.0643	0.0756	0.0895	0.104	0.119	0.138	0.157
x2 = 0.1666	0.0629	0.0722	0.084	0.096	0.11	0.125	0.142	0.159	0.18
x2 = 0.2307	0.0788	0.0907	0.102	0.115	0.131	0.146	0.164	0.181	0.202
x2 = 0.3103	0.0908	0.103	0.115	0.13	0.144	0.161	0.18	0.198	0.218
x2 = 0.4117	0.0987	0.11	0.124	0.14	0.155	0.172	0.189	0.207	0.229
x2 = 0.5454	0.103	0.114	0.128	0.141	0.156	0.173	0.189	0.209	0.228
x2 = 0.7297	0.102	0.112	0.124	0.138	0.151	0.166	0.183	0.2	0.217
